Consider two compounds from patent US20050031610A1, “CD44-related fragments, compositions and methods” (priority 2002, published 2005).

In experiment [1] the test system is γ-secretase. The experiment is described as follows: Accumulation of membrane-associated CD44 C-terminal fragments in CD44-transfected CHO cells (Western blot, anti-V5). As to conditions: CHO cells transfected with CD44 C-terminal V5-tag, 16 hours. Type of experiment: cell-based. The procedure:
FIG. 1. The accumulation of membrane-associated C-terminal derivatives of CD44 by a γ-secretase inhibitor. The CHO cells transfected with constructs encoding CD44 with C-terminal V5-tag were incubated in the presence of the indicated concentrations of γ-secretase inhibitor Compound E (Cpd. E) for 16 hours. Detergent lysates were analyzed by Western blot analyses (4-20% Tris-Glycine SDS-PAGE) using anti-V5 antibody.
When constructs encoding full-length CD44 with C-terminal V5 epitope tag were transiently expressed, full-length CD44 (˜85 kDa) was constitutively processed to generate membrane-associated C-terminal fragments with apparent molecular weights of ˜19 to 22 kDa (FIG. 1). First, experiments were performed to determine whether a γ-secretase inhibitor blocks the putative intramembrane cleavage of CD44 to cause an accumulation of CD44 similar to that observed for APP and ErbB4 (Lee, H.-J., Jung, K.-M., Huang, Y. Z., Bennett, L. B., Lee, J. S., Mei, L. and Kim, T.-W., Presenilin-dependent γ-secretase-like intramembrane cleavage of ErbB4. J. Biol. Chem., 277:6318-6329 (2002)).

The subject of experiment [2] is γ-secretase. The experiment is described as follows: In vitro CD44-ICD generation using membrane fractions from CD44-transfected 293 cells. The format is biochemical. Details: dose or concentration left out as unconfirmed. The following applies: membrane fractions from dW and dAsp cells, 37° C. The procedure:
FIG. 4. In vitro generation of the CD44 intracellular domain (CD44-ICD). Membrane fractions prepared from either dW or dAsp cells transfected with full-length CD44 were incubated at 37° C. for the indicated hours with or without Cpd E (1 mM) or MG132 (50 mM). After the incubation, both the pellet (A) and the supernatant (B) were analyzed by Western blot analyses […] using anti-V5 antibody.
The incubation of the cytosol-free membrane fractions from dW cells transfected with CD44 led to the generation of two fragments (T1 and T2) in the membrane fractions (FIG. 4A) and the release of V5-epitope-tagged CD44-ICD into the soluble fraction (FIG. 4B).

The subject of experiment [3] is CD44. In words: Ligand-induced CD44 cleavage / generation of CD44-ICD in CD44-transfected cells (Western blot, anti-V5). Type of experiment: cell-based. The text has this: FIG. 5. (A) Schematic representations of truncated CD44 constructs and putative cleavage sites of CD44. Starting amino acid sequences of truncated (ΔE) or intracellular (ICD) CD44 constructs and predicated proteolytic cleavage sites are indicated by arrows. Full-length (FL) and all ICD constructs contain C-terminal V5 tag, whereas all ΔE constructs harbor N-terminal HA tag located immediately after the signal peptide in addition to the C-terminal V5 tag. (B) Expression of truncated CD44 constructs in HEK293 cells. The lysates from the cells transfected with indicated constructs were analyzed by Western blot analyses. The locations of precursor polypeptide encoded by each constructs as well as the cleavage products (e.g. S1, T1, and T2) are shown on the right side of each blot. The lysates from full-length CD44-transfected cells grown in the absence (FL) or presence (FL+hyaluronan) of hyaluronan are shown as controls.
FIG. 6. Ligand-induced generation of CD44-ICD. Cells were treated for 24 hours with solvent only (Control), hyaluronan, hyaluronan plus Cpd. E, phorbol ester TPA, and TPA plus hyaluronan, and the lysates were analyzed by Western blotting using anti-V5 antibody.
(§1) It has been previously reported that high molecular weight forms of hyaluronan (HA) induce cell growth arrest (Morrison et al., Genes and Development, 15, 968-980, 2001; Herrlich et al., Ann. NY Acad. Sci. 910, 106-118, 2000).

For experiment [4], the system named is HEK293 cells. In words: Hyaluronan-mediated growth retardation, count of EGFP-positive CD44-transfected HEK293 cells. Type of experiment: cell-based. The following applies: 40 hour incubation. Here is the method: FIG. 7. Effects of a γ-secretase inhibitor in hyaluronan-mediated growth retardation. HEK293 cells were transfected with constructs encoding both full-length CD44 and enhance green fluorescence protein (EGFP) in a single plasmid. Identical number of transfected cells were plated into multiple dishes and incubated with hyaluronan, hyaluronan plus Cpd. E, TPA, and TPA plus Cpd. E. After 40 hour incubation, the number of EGFP-positive cells were counted. Values represent the mean±s.d.
as §1

Entries after “also recorded” stand apart in the source; their conditions may differ.

With `C[C@H](NC(=O)Cc1cc(F)cc(F)c1)C(=O)N[C@H]1N=C(c2ccccc2)c2ccccc2N(C)C1=O` [Compound E], the “accumulation of transgene-derived CD44 C-terminal fragments” value in experiment [1] is given as “led to the accumulation”. The “generation of T1 fragments” value in experiment [2] was “not blocked”. In addition, in experiment [3] (hyaluronan plus Compound E), the “inhibition of the HA-induced accumulation of S1 and T1 cleavage products” value is on record as “didn't inhibit”. In addition, in experiment [3] (hyaluronan plus Cpd. E, 24 hours), the “effect on T2 cleavage products” value is on record as “selectively affected”. Besides, the “effect on the growth inhibition induced by HA” value in experiment [4] (hyaluronan plus Cpd. E) is listed as “reverted the growth-inhibition”.
Take hyaluronan [HA]: in experiment [3] (cells treated with high molecular weight forms of HA), the “levels of S1 and T1 cleavage products” value is recorded as “elevated”. Moreover, the “generation of CD44-ICD” value in experiment [3] (cells treated with high molecular weight forms of HA, 24 hours) is listed as “led to the generation of CD44-ICD”. Also, the “generation of S1 and T2 cleavage” value in experiment [3] (full-length CD44-transfected HEK293 cells, FL vs. FL+hyaluronan) is on record as “increased generation”. For the same compound, the “growth of cells transfected with CD44” value in experiment [4] (HEK293 cells, full-length CD44 and EGFP) is recorded as “induced growth inhibition; also recorded: led to an inhibition of cell proliferation”.
